Reference: the supplement of paper PMC3068080

Key:
[1] = tested on: TGFBR2 mRNA; experiment: remaining TGFBR2 mRNA relative to control siRNA (off-target knock-down) (fraction of control); quantification method: branched DNA; higher = less knock-down
Method: (§1)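 Screen-hit siRNA duplexes (19-mer plus 3' dTdT overhang) were transiently transfected into HaCaT cells in 12-well plates. After 48 h, TGFBR1 and TGFBR2 mRNA were quantified by branched DNA assay (QuantiGene, normalised to HPRT1) or by SYBR qPCR (normalised to HPRT1/SMAD4). Values are the remaining mRNA relative to control-siRNA-transfected cells; 1-2 biological replicates.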

[2] = tested on: TGFBR1 mRNA; experiment: remaining TGFBR1 mRNA relative to control siRNA (off-target knock-down) (fraction of control); quantification method: branched DNA; higher = less knock-down
Method: as §1

Row | Sequence | remaining TGFBR2 mRNA [1] | remaining TGFBR1 mRNA [2]
1 | UAUAACUCUCAGGGGAUAUTT | 0.4 | 1.07
2 | UAUAGUCCACAGACACGCUTT | 0.97 | 0.92
3 | UAUCUCAUGAAAGCGCUUCTT | 0.25 | 1.12
4 | UAUGCUCCUCUUCCUGUUCTT | 0.57 | 1.43
5 | UCAACAAGCUAAGUCUGCCTT | 0.72 | 1.1
6 | UCAAGCCCAGAGGUGUCAUTT | 1 | 1.24
7 | UCAAGGUGGACAAAGCUCUTT | 0.29 | 0.74
8 | UCAAGUGCAGUAGUAGAUGTT | 0.51 | 1.09
9 | UCAAGUGCAUCUCCACAGCTT | 0.23 | 1.29
10 | UCACCUUGCAGGAAGGAAGTT | 0.71 | 1.26
11 | UCAUAAGCAUGCUCCACACTT | 0.62 | 0.14
12 | UCAUAGCUCUGGCAUCGUCTT | 0.41 | 1.11
13 | UCCAAGUCGAGAAGAGACCTT | 0.46 | 0.9
14 | UCCACGAUGAAGGGAUGCUTT | 0.7 | 1.06
15 | UCCAGCUGCAUUCCUCGCUTT | 0.35 | 0.75
16 | UCCAGCUGUUUCGUUCCUCTT | 0.36 | 0.85
17 | UCCAUGGAUGCAGAAGUCCTT | 0.56 | 0.96
18 | UCCCGUACUGGUUCUGGGGTT | 0.81 | 1.1
19 | UCCUGGAAGUUUGACGUCCTT | 1.41 | 0.88
20 | UCCUUGGUCCAUUAGGAGATT | 0.22 | 0.61
21 | UCCUUGGUCUCAUCUGCCUTT | 0.43 | 1.05
22 | UCCUUGGUGUAUUCUAACATT | 0.42 | 0.93
23 | UCCUUGUCCUUGGACAGUGTT | 0.24 | 1.14
24 | UCUACCCAGAACUCCACGATT | 1.01 | 0.14
25 | UCUCAUUUACCCUUUGGGGTT | 0.33 | 0.67
26 | UCUCGGAGGCAGUUCCAGCTT | 0.82 | 0.86

Row | Sequence | remaining TGFBR2 mRNA [1] | remaining TGFBR1 mRNA [2]
27 | UCUGCAACGUAGAGGUUAUTT | 0.79 | 0.22
28 | UCUGGUCUCAGCCAUUGAATT | 1.08 | 0.26
29 | UCUUGGCUUUGACACCGAGTT | 0.39 | 0.48
30 | UGAAGACAGUCCUAUGGACTT | 0.97 | 0.42
31 | UGAAUAACCCUCUGGACAGTT | 0.83 | 0.45
32 | UGAUAGCACCAACACAAAGTT | 0.74 | 0.44
33 | UGAUGUUGAUCUGGGGCACTT | 0.54 | 0.55
34 | UGAUGUUGUCUUGUCUGGUTT | 0.42 | 0.44
35 | UGCAGUGAUAAAGGCUACATT | 0.67 | 0.34
36 | UGCAUUGGCUCCCACUUCATT | 0.33 | 0.26
37 | UGCGUUUACGGUUCACACGTT | 0.6 | 0.69
38 | UGCUUAUCUCAUCUGAAGCTT | 0.28 | 0.93
39 | UGCUUGAGUAGUGCUAGUUTT | 0.58 | 0.71
40 | UGGAAGACGCUUUAAAGGCTT | 0.48 | 0.85
41 | UGGACAUGGAGUGGCCUGATT | 0.55 | 1.09
42 | UGGAGCUGCACAUAUUCCUTT | 0.27 | 1.2
43 | UGGCCGUCAAUGUAUUUCUTT | 0.7 | 1.25
44 | UGGGCUUUUCUCUUCUCUCTT | 1.43 | 1.47
45 | UGGUGAAGAGGCACUUAACTT | 1.06 | 0.69
46 | UGUACUUCUCCUUGGAGAATT | 0.64 | 0.8
47 | UGUAGUGAAUUCCAAAGAGTT | 0.41 | 0.47
48 | UGUCCUGGUCACACUUCCATT | 0.5 | 0.23
49 | UGUGCUUGGUCACGGACACTT | 0.27 | 1.86
50 | UGUGUAGCACAUGGGACACTT | 0.73 | 1.05
51 | UGUUCUUGAAGUCCCGCAGTT | 0.78 | 1.69
52 | UUAUAAGCCAAAGUGCGUCTT | 1.66 | 0.6

Row | Sequence | remaining TGFBR2 mRNA [1] | remaining TGFBR1 mRNA [2]
53 | UUAUCCCAUAUGAGCUCAGTT | 0.5 | 1.33
54 | UUAUCCUGAUCACGUCUAGTT | 0.14 | 0.65
55 | UUAUUGGGCAAAAUCCGGGTT | 0.72 | 0.88
56 | UUCAAGGUCAGUCUCUGGGTT | 0.51 | 1.07
57 | UUCAAUAGUUGUCAGAGGCTT | 1.62 | 1.35
58 | UUCCCUGCUACUGUUGCUUTT | 0.72 | 0.84
59 | UUCCUUGGCUGUGAUGCUCTT | 0.11 | 0.93
60 | UUCCUUGGUACGGCCGCUCTT | 0.13 | 0.87
61 | UUCGUCGAUGGCUUCGUCUTT | 0.65 | 0.67
62 | UUCUUCUGGUCCAUACUCATT | 0.66 | 0.45
63 | UUCUUUGGAGAGUCCGGUCTT | 0.3 | 0.88
64 | UUGAGCGAUUCCAGCUGCATT | 0.85 | 1.77
65 | UUGCAAGCCCAGAUCAGACTT | 0.74 | 0.92
66 | UUGGAGCCCUUUCCUUUCUTT | 0.26 | 1.07
67 | UUGUAAAAACCAGGCGACCTT | 0.33 | 1.48
68 | UUGUCAAAGUGGAACGCUCTT | 0.29 | 0.83
69 | UUGUGCUGCAUACGGAGCCTT | 0.45 | 1.69
70 | UUUCAGCAAUACAAGCCCGTT | 0.68 | 0.39
71 | UUUCAUUCCAUUGGAAUUUTT | 0.59 | 1.25
72 | UUUCCUGGCCUCCUGGAACTT | 0.29 | 0.94
73 | UUUCCUGGUUGGUGAGCAGTT | 0.36 | 1.29
74 | UUUGGACUGGUUGGCACAGTT | 0.69 | 1.11
75 | UUUGGAGCUCCCCAAACGCTT | 0.26 | 0.39
76 | UUUGGCUUCUUCUAGUGACTT | 0.51 | 0.91
77 | UUUGUUGUCCAGUGGUCCGTT | 0.43 | 1.13
78 | UUUUCCUGGCCUCUGAUCCTT | 0.15 | 0.99
